Common to all, as to assay type: cell-based
One assay concerns DU-145 cells. In words: MTT cell viability assay, 96 hr exposure. To be noted: DU-145, 96 hrs; for GI50: Homo sapiens. The method, then: (§1) All cell lines were obtained from American. Type Culture Collection (Rockville, Md.) and maintained in RPM 1640 media supplemented with 10% fetal bovine serum and 5% penicillin streptomycin solution. Cells were grown as a monolayer in a humidified incubator (5% CO2) at 37° C. To determine the effect of the various compounds on cell proliferation, cells were plated (2500 cells/well) in 96-well cell culture dishes (Corning, Inc. Corning, N.Y.). After a 24 hr attachment period, media was replaced with fresh media containing compounds (0.01 μM-100 μM) or vehicle (95% ethanol). The cells were then allowed to grow in the presence of the drugs for 96 hrs. After 96 hrs, relative cell viability was assessed using the MIT reagent (3-(4,5-dimethylthiazol-2-yl)-2,5-diphenyltetrazolium bromide) as is well-known in the art. […] Results were plotted using the average of each dose over all three experiments and fitted with a best-fit sigmoidal dose response variable slope curve using GraphPad Prism 4.01 (GraphPad Software, Inc.). For combination of VN/124-1 and Thapsigargin, cells were treated for 72 hrs and viability was assessed as described for single agents. Combination index (CI) was calculated as is well known in the art, and CI values less than 1 are considered synergistic.
(In general: Tetrazolium assays rely on reduction of a dye to a coloured formazan, in cell work by metabolically active cells.)

A further assay relates to LNCaP cells. In words: MTT cell viability assay, 96 hr exposure. To be noted: for GI50: Homo sapiens. The method, then:
as §1

Assay [1] has as its system PC-3 cells. In words: MTT cell viability assay, 96 hr exposure. The settings on record: PC-3, 96 hrs; for GI50: Homo sapiens. How it is done: as §1
Assay [2] deals with PC-3 cells. In words: Microarray global gene expression (GeneChip Human Genome Focus Array, DAVID ontologies). The settings on record: 20 μM, 24 hrs. How it is done: To perform the microarray experiments, PC-3 cells were treated with (95% ethanol) or 20 μM of VN/124-1. After 24 hr exposure to the agent, cells were pelleted and lysed using Qiagen RLT (Qiagen Inc.; Valencia, Calif.) buffer containing 1% β-mercaptoethanol. Total RNA was isolated using the Qiagen RNeasy-Mini Kit following manufacturer's protocol. Quantity and purity were assessed by absorption at 260 nm and 280 nm. RNA integrity was assessed using an Agilent Bioanalyzer (Agilent Technologies; Santa Clara, Calif.). Experiments were carried out in duplicate, with triplicate samples (dosed independently on 3 different days) from each experiment pooled for analysis on a single chip.
Samples were hybridized to a GeneChip® Human Genome Focus Array (Affymetrix Inc., U.S.A.) and analyzed using an Affymetrix Genechip Scanner 3000 according to manufacturer's protocol. Gene ontologies were identified using the online Database for Annotation, Visualization, and integrated Discovery (DAVID) provided by the National Institute of Allergy and Infectious Diseases and the National Institute of Health. […] Stringent criteria of a minimum EASE/P-Value threshold of 0.001 and a gene count threshold of 5 were used to identify altered gene ontologies.

The test system of assay [3] is PC-3 cells. The assay is described as follows: Real-time PCR (qRT-PCR) of stress response and cell cycle related genes. The settings on record: 20 μM, 24 hr. How it is done:
Cells were treated, lysed and RNA collected and quantified using the same method outlined above. Cells were dosed independently on 3 separate days (n=3). 1 μg of total RNA was converted to cDNA using ReactionReady™ First Strand cDNA Synthesis kit (SuperArray Bioscience Corp.; Frederick, Md.) following manufacturer's protocol. 50 ng of template cDNA was then used in subsequent real-time PCR (qRT-PCR) reactions. Template was combined with target gene specific or β-actin control RT^2 PCR Primer Sets, RT^2 Real-Time™ SYBR Green/Rox Master Mix (SuperArray Bioscience Corp.), and ddH2O for a final reaction volume of 25 μL and run on a 7900HT Fast Real-Time PCR system (Applied Biosystems; Foster City, Calif.) following manufacturer's protocol. Fold changes were calculated using the ΔΔCt method as recommended by the manufacture's protocol.
(In qPCR the cycle at which signal appears reflects the starting amount.)

Assay [4] has as its system eIF2α, p-eIF2α, cyclin D1, gp78/BiP, CHOP. In words: Western blot of ERSR related proteins. The settings on record: 20 μM. The method, then:
Cells were treated with VN/124-1, thapsigargin or vehicle for 6 and 24 hrs. Protein was isolated, subjected to SDS-PAGE, transferred and imaged as is known in the art. Primary antibodies against eIF2α, p-eIF2α, cyclin D1, gp78/BiP, and β-actin were purchased from Cell Signaling (Danvers, Mass.), Anti-CHOP antibody was purchased from Sigma Aldrich (St Louis, Mo.). Quantitation of relative protein expression was determined via densitometry using the software ImageQuant 5.0 (Molecular Dynamics) with each protein normalized to its respective loading control. Results represent the average of at least 3 independent experiments, with representative blots shown.
For orientation: In western blotting, separated proteins are transferred to a membrane and probed.

In assay [5] the test system is PC-3 cells. In words: Cell cycle analysis by flow cytometry in synchronized cells. The settings on record: 20 μM. The method, then:
Cells were synchronized in the G1/G0 phase by maintaining them in 0.2% FBS-containing media for 96 hrs. After starvation, media was replaced with normal growth media (10% FBS) containing vehicle (95% ethanol) or 20 μM VN/124-1 for 12, 18, and 24 hrs. At each timepoint, cells were pelleted and fixed in 70% ethanol at −20° C. for at least 24 hrs. Fixed cells were then incubated with 1 mL propidium iodide (PI) staining buffer (1 mg/ml PI, 0.1% Triton-X, and 10 μg/ml RNase A dissolved in PBS) for 1 hr at room temperature and DNA content was measured by flow cytometry analysis using a FACSort flow cytometer (Becton Dickinson, San Jose, Calif.). 15,000 events were analyzed for each sample and ModFit LT version 3.1 (Verity Software House Ind., ME) was used to analyze cell cycle distribution.

Assay [6] deals with PC-3 cells. In words: Ca2+ transients in individual cells, Fluo-3AM. To be noted: 20 μM; for transient rise in [Ca2+]i, mean peak ΔF/F0: Fluo-3AM. The method, then: (§2) PC-3 Cells were loaded with either fura-2 or fluo-3 indicator by incubation with 2 μM fura-2/AM or 2 μM fluo-3/AM in RPMI 1640 medium containing 10% fetal bovine serum for >60 min at room temperature. During experiments, the coverslips were mounted in a flow chamber and superfused with oxygenated Locke solution containing (in mM): 10 glucose, 136 NaCl, 5.6 KCl, 1.2 NaH2PO4 14.3 NaHCO3, 1.2 MgCl2, and 2.2 CaCl2, pH 7.4, at room temperature (22-24° C.).
For measurement of [Ca^2+]i in individual cells, PC-3 cells were incubated on coverslips with 20 μM VN/124-1 or vehicle for 24 hrs. Cells loaded with fura-2 were placed in a perfusion chamber mounted on an inverted microscope (TE200; Nikon, Tokyo, Japan) equipped with a UV-transmitting objective (SuperFluor, 40×, N.A. 1.4, Nikon). Pura-2 was alternately excited by 340 nm and 380 nm light from monochrometers (Deltascan Illumination System, Photonic Technology International (PTI), South Brunswick, N.J.) and fura-2 emission was passed through a 515 nm longpass tiller before detection by a cooled CCD camera (Retiga 2000R, Q-Imaging, Burnaby, Canada). For measurement of Cat^2+ transients in individual cells, coverslips with fluo-3 loaded cells were excited by the output of a 100 W mercury are lamp that passed through a 480 nm bandpass filter (30 nm bandwidth). Fluorescence emission was passed through a 515 nm longpass filter before capture by a cooled CCD camera (Retiga 2000R, Q-Imaging). Image acquisition was performed with QCapture Pro (Q-Imaging) and analysis was performed with ImageJ (U.S. National Institutes of Health Bethesda, Md. USA).
(§3) Fluo-3 Ca^2+ indicator measurements are reported as the fractional change in fluorescence intensity relative to baseline (ΔF/F0), which was determined as follows. Within a temporal sequence of fluorescence images, a region of interest (ROI) was drawn around each cell to be analyzed. The fluorescence signal from each cell was calculated as the pixel-averaged intensity within each ROI. […]

Assay [7] deals with PC-3 cells. The assay is described as follows: Absolute [Ca2+]i in individual cells, Fura-2AM. To be noted: 20 μM, 24 hrs, control cells about 42.05 nM. How it is done:
as §2
For measurement of [Ca^2+]i in individual cells, PC-3 cells were incubated on coverslips with 20 μM VN/124-1 or vehicle for 24 hrs. Cells loaded with fura-2 were placed in a perfusion chamber mounted on an inverted microscope (TE200; Nikon, Tokyo, Japan) equipped with a UV-transmitting objective (SuperFluor, 40×, N.A. 1.4, Nikon). […] Fluorescence emission was passed through a 515 nm longpass filter before capture by a cooled CCD camera (Retiga 2000R, Q-Imaging). […]
as §3

Assay [8] concerns PC-3 cells. In words: Co-administration of VN/124-1 and thapsigargin, MTT cell viability, combination index. The settings on record: 96 hrs, CI less than 1 synergistic. How it is done:
All cell lines were obtained from American. Type Culture Collection (Rockville, Md.) and maintained in RPM 1640 media supplemented with 10% fetal bovine serum and 5% penicillin streptomycin solution. Cells were grown as a monolayer in a humidified incubator (5% CO2) at 37° C. To determine the effect of the various compounds on cell proliferation, cells were plated (2500 cells/well) in 96-well cell culture dishes (Corning, Inc. Corning, N.Y.). After a 24 hr attachment period, media was replaced with fresh media containing compounds (0.01 μM-100 μM) or vehicle (95% ethanol). The cells were then allowed to grow in the presence of the drugs for 96 hrs. After 96 hrs, relative cell viability was assessed using the MIT reagent (3-(4,5-dimethylthiazol-2-yl)-2,5-diphenyltetrazolium bromide) as is well-known in the art. Experiments were carried out 3 times with 6 replicates per dose per experiment (n=18). Results were plotted using the average of each dose over all three experiments and fitted with a best-fit sigmoidal dose response variable slope curve using GraphPad Prism 4.01 (GraphPad Software, Inc.). […] Combination index (CI) was calculated as is well known in the art, and CI values less than 1 are considered synergistic.

Regarding `C[C@]12CC[C@H](O)CC1=CCC1C2CC[C@]2(C)C(n3ccnc3)=CCC12` (stereo partly shown) [VN/85-1], the GI90 came to 31.62 µM in the assay on DU-145 cells, 36.49 µM with LNCaP cells and 30.41 µM in the assay with PC-3 cells [1]. Also, the GI50 in the assay with DU-145 cells turned out to be 5.31 µM; in the assay with LNCaP cells, 2.47 µM; with PC-3 cells [1], 1.86 µM.
Regarding `C[C@]12CC[C@H](O)CC1=CCC1C2CC[C@]2(C)C(n3cncn3)=CCC12` (stereo partly shown) [VN/63-1], the GI90 in the assay on DU-145 cells, with LNCaP cells and in the assay on PC-3 cells [1] was greater than 100 µM in each case. In addition, the GI50 came to 11 µM in the assay on DU-145 cells, 1.05 µM in the assay on LNCaP cells and 2.91 µM in the assay with PC-3 cells [1].
Regarding `C[C@]12CC[C@H](O)CC1=CC[C@@H]1[C@@H]2CC[C@]2(C)C(c3cccnc3)=CC[C@@H]12` [Abiraterone, 17-(3-pyridyl)androsta-5,16-dien-3β-ol, reference compound], the GI50 amounted to 14.7 µM in the assay on DU-145 cells, 1.41 µM in the assay on LNCaP cells and 9.32 µM with PC-3 cells [1].
Take `C[C@]12CCC(=O)C=C1CCC1C2CC[C@]2(C)C(n3cnc4ccccc43)=CCC12` (stereo partly shown) [VN/125-1]: the GI90 in the assay with DU-145 cells was determined as 15.53 µM; in the assay with LNCaP cells, 13.46 µM; in the assay on PC-3 cells [1], 8.07 µM.
For the molecule `C[C@]12CC[C@H](O)CC1=CC[C@@H]1[C@@H]2CC[C@]2(C)C(n3cnc4ccccc43)=CC[C@@H]12` [VN/124-1], in the assay with DU-145 cells, the GI90 is 15.95 µM and the GI50 worked out at 7.55 µM. Further, in the assay with LNCaP cells, the GI90 is 31.99 µM and the GI50 was determined as 3.15 µM. Moreover, in the assay with PC-3 cells [1], the GI50 was 7.82 µM and the GI90 is 18.62 µM. Also, in the assay with PC-3 cells [2], the “S100P calcium binding protein gene expression” value is given as “most highly up-regulated”. In the assay on PC-3 cells [3] (microarray verified by qRT-PCR), the “activating transcription factor 4 (ATF4) gene expression” value is reported as “up-regulated” and the “asparagines synthetase (ASKS) gene expression” value is “up-regulated”. Further, in the assay on PC-3 cells [3] (qRT-PCR), the CHOP gene expression result was “strongly up-regulated”, the “cyclin D1 mRNA levels” value is on record as “not affected” and the “cyclin E2 mRNA levels” value was “significantly reduced”. Also, in assay [4], the CHOP protein level entry was “up-regulation” and the “expression of gp78/BiP protein” value is reported as “significantly induced”. The “phosphorylation of eIF2α” value in [4] (6 and 24 hrs) is reported as “induced the phosphorylation”. The “cyclin D1 protein” value in [4] (24 hrs) is reported as “down-regulation”. Also, the “amount of cells in G1/G0” value in the assay with PC-3 cells [5] (18 and 24 hrs, synchronized cells) is given as “significant increase”. The “exit from G1 phase of the cell cycle” value with PC-3 cells [5] (cells synchronized by serum starvation) is “prevented the exit from G1 phase”. Moreover, the “transient rise in [Ca2+]i, mean peak ΔF/F0” value with PC-3 cells [6] (extracellular calcium removed) is reported as 0.967. Further, the “transient rise in [Ca2+]i, mean peak ΔF/F0” value with PC-3 cells [6] (presence of extracellular calcium) was found to be 0.613. The “transient rise in [Ca2+]i after depletion of ER calcium stores” value in the assay with PC-3 cells [6] (pretreatment with SERCA inhibitor cyclopiazonic acid (CPA)) is given as “completely abolished”. The “absolute [Ca2+]i, mean” value with PC-3 cells [7] is “about 66.21 nM”. Besides, the “Combination index (CI)” value in the assay on PC-3 cells [8] (5 μM VN/124-1 plus 10 nM thapsigargin) is listed as 0.40. The “Combination index (CI)” value in the assay with PC-3 cells [8] (10 μM VN/124-1 plus 10 nM thapsigargin) is 0.58. Further, in the assay on PC-3 cells [8] (20 μM VN/124-1 plus 10 nM thapsigargin), the “Combination index (CI)” value was 0.77.

The GI50 is the concentration that inhibits growth by half.

For the origin of these results see patent US8785423B2, “Compositions and methods of inducing endoplasmic reticulum stress response for the treatment of cell proliferative diseases” (University of Maryland, Baltimore, priority 2008, dated 2014).
